Test results from ChEMBL document CHEMBL1921797, “Synthesis and biological evaluation of arylated novobiocin analogs as Hsp90 inhibitors” (Bioorg Med Chem Lett, 2011).
Calls of active or inactive are those of the source. No cut-off for these calls is given here.

Columns and labels:
[1] = tested on: SK-BR-3; experiment: Antiproliferative activity against human SKBR3 cells; type: functional, cell-based
[2] = tested on: MCF7; experiment: Antiproliferative activity against human MCF7 cells; type: functional, cell-based
[3] = target: Heat shock protein HSP 90-beta (Homo sapiens) (UniProt P08238); experiment: Inhibition of human C-terminal domain of Hsp90 in MCF7 cells assessed as Her2 degradation at 0.1 to 100 uM by Western blotting; type: cell-based
Heat shock protein HSP 90-beta (Homo sapiens), sequence (P08238 whole entry, the tested form may be a part): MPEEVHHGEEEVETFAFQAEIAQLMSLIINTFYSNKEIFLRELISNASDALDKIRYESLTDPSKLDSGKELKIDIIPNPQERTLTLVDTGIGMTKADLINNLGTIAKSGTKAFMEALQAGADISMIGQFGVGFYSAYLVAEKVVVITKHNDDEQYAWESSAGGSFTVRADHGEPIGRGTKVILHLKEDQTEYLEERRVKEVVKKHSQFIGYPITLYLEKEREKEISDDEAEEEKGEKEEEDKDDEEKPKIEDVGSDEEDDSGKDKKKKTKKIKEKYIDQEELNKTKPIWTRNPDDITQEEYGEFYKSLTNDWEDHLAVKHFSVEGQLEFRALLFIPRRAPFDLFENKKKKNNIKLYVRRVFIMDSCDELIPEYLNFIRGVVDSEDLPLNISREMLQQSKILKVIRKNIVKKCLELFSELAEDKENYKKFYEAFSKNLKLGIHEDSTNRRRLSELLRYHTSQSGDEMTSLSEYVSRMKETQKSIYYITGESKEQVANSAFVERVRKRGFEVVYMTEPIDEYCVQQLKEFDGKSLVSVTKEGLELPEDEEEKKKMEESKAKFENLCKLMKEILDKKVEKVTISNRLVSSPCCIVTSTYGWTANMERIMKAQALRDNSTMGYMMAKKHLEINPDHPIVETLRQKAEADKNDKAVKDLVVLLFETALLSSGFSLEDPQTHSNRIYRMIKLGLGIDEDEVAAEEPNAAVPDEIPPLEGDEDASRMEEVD

[4] = target: Heat shock protein HSP 90-beta (Homo sapiens) (UniProt P08238); experiment: Inhibition of human C-terminal domain of Hsp90 in MCF7 cells assessed as Raf degradation at 0.1 to 100 uM by Western blotting; type: cell-based
[5] = target: Heat shock protein HSP 90-beta (Homo sapiens) (UniProt P08238); experiment: Inhibition of human C-terminal domain of Hsp90 in MCF7 cells assessed as Akt degradation at 0.1 to 100 uM by Western blotting; type: cell-based
[6] = target: Heat shock protein HSP 90-beta (Homo sapiens) (UniProt P08238); experiment: Induction of human Hsp90 activity in MCF7 cells at 0.1 to 100 uM by Western blotting; type: cell-based
[7] = tested on: MCF7; experiment: Ratio of IC50 for human SKBR3 cells to IC50 for human MCF7 cells; type: functional

| SMILES | IC50 [1] | IC50 [2] | also measured |
| --- | --- | --- | --- |
| COCOc1ccc(Cc2ccc3cc(NC(=O)c4ccc(OC(C)=O)c(CC=C(C)C)c4)c(=O)oc3c2C)cc1OC | 14.2 µM | 14.9 µM |  |
| COc1ccc(Oc2ccc3cc(NC(=O)c4ccc(O)c(CC=C(C)C)c4)c(=O)oc3c2C)cc1 | 42.7 µM | 6.51 µM | inhibition [3]: Active; inhibition [4]: Active; inhibition [5]: Active; Activity [6]: inactive |
| COc1ccc(Nc2ccc3cc(NC(=O)c4ccc(OC(C)=O)c(CC=C(C)C)c4)c(=O)oc3c2C)cc1 | > 100 µM | > 100 µM |  |
| COc1ccc(Cc2ccc3cc(NC(=O)c4ccc(O)c(CC=C(C)C)c4)c(=O)oc3c2C)cc1 | 11.1 µM | 13.2 µM |  |
| COc1ccc(Nc2ccc3cc(NC(=O)c4ccc(O)c(CC=C(C)C)c4)c(=O)oc3c2C)cc1 | > 100 µM | > 100 µM |  |
| COc1cccc(Oc2ccc3cc(NC(=O)c4ccc(O)c(CC=C(C)C)c4)c(=O)oc3c2C)c1 | 33.1 µM | 62.8 µM |  |
| COc1cccc(Cc2ccc3cc(NC(=O)c4ccc(O)c(CC=C(C)C)c4)c(=O)oc3c2C)c1 | 14.8 µM | 19.7 µM |  |
| COc1ccc(Cc2ccc3cc(NC(=O)c4ccc(OC(C)=O)c(CC=C(C)C)c4)c(=O)oc3c2C)cc1 | 23.5 µM | 11.5 µM | inhibition [3]: Active; inhibition [4]: Active; inhibition [5]: Active; Activity [6]: inactive |
| COc1ccc(Cc2ccc3cc(NC(=O)c4ccc(O)c(CC=C(C)C)c4)c(=O)oc3c2C)cc1OC | > 100 µM | 13.9 µM | Ratio IC50 [7]: 10 |
| CC(C)=CCc1cc(C(=O)Nc2cc3ccc(Cc4ccc(O)cc4)c(C)c3oc2=O)ccc1O | 21.5 µM | 32.1 µM |  |
| COc1cc(Cc2ccc3cc(NC(=O)c4ccc(O)c(CC=C(C)C)c4)c(=O)oc3c2C)ccc1O | 10.7 µM | 14.6 µM |  |
| COCOc1ccc(Cc2ccc3cc(NC(=O)c4ccc(OC(C)=O)c(CC=C(C)C)c4)c(=O)oc3c2C)cc1 | 13.5 µM | 22.7 µM |  |

Second part, led by results:

| IC50 [1] | IC50 [2] | SMILES | also measured |
| --- | --- | --- | --- |
| > 100 µM | > 100 µM | COc1ccc(Cc2ccc3cc(NC(=O)c4ccc(OC)c(-c5cccc(OC)c5)c4)c(=O)oc3c2C)cc1 |  |
| > 100 µM | > 100 µM | COc1cccc(Oc2ccc3cc(NC(=O)c4ccc(OC)c(-c5cccc(OC)c5)c4)c(=O)oc3c2C)c1 |  |
| > 100 µM | > 100 µM | COc1ccc(Nc2ccc3cc(NC(=O)c4ccc(OC)c(-c5cccc(OC)c5)c4)c(=O)oc3c2C)cc1 |  |
| > 100 µM | > 100 µM | COc1cccc(-c2cc(C(=O)Nc3cc4ccc(Oc5ccc(C(C)(C)C)cc5)c(C)c4oc3=O)ccc2OC)c1 |  |
| 68.3 µM | 20.6 µM | CC(C)=CCc1cc(C(=O)Nc2cc3ccc(Oc4ccc(C(C)(C)C)cc4)c(C)c3oc2=O)ccc1O |  |
| 13.7 µM | 15.7 µM | COc1cccc(Oc2ccc3cc(NC(=O)c4ccc(OC(C)=O)c(CC=C(C)C)c4)c(=O)oc3c2C)c1 |  |
| 72.4 µM | 75 µM | CC(=O)Oc1ccc(C(=O)Nc2cc3ccc(Oc4ccc(C(C)(C)C)cc4)c(C)c3oc2=O)cc1CC=C(C)C |  |
| 19.5 µM | 18.2 µM | COc1ccc(Oc2ccc3cc(NC(=O)c4ccc(OC(C)=O)c(CC=C(C)C)c4)c(=O)oc3c2C)cc1 |  |
| > 100 µM | > 100 µM | COc1ccc(Oc2ccc3cc(NC(=O)c4ccc(OC)c(-c5cccc(OC)c5)c4)c(=O)oc3c2C)cc1 |  |
| 4.09 µM | 7.11 µM | COc1cccc(-c2cc(C(=O)Nc3cc4ccc(Cc5ccccc5)c(C)c4oc3=O)ccc2OC)c1 |  |
